Experimental data as given in PMC10347550, “Cyclic Ruthenium-Peptide Conjugates as Integrin-Targeting Phototherapeutic Prodrugs for the Treatment of Brain Tumors” (Journal of the American Chemical Society, 2023).
pEC50, pKd: −log10 of the molar value. Where two headings read alike, the source gives them in different places.

Key:
[1] = test system: A549 cells; experiment: 2D cytotoxicity assay, 24 h DLI & no wash, SRB endpoint; type: cell-based, human; details: A549 2D monolayer, not washed, n = 3
Procedure: (§1) For each complex, two identical plates were prepared, one of which was irradiated with light, while the other was used as a dark control. […] Finally, at t = 96 h, 100 μL of cold trichloroacetic acid (10% w/v) was added to each well to fix the cells, and all plates were then transferred to a 4 °C refrigerator for 48 h before performing an SRB cell quantification endpoint assay.[72] Trichloroacetic acid was first removed and each plate was gently washed with demi water 3–5 times. Then, each well was dried in the air, and 100 μL of 0.6% SRB solution (0.6% w/v in 1% v/v acetic acid/H2O solution) was added into each well where it was allowed to stain for 30 min. Then, the plates were washed 3–5 times using an acetic acid solution (1% v/v). Once the plate was washed it was allowed to dry overnight. Then, 200 μL of 10 mM Tris base buffer was added to each well and the plate was allowed to sit on an orbital shaker for 0.5–16 h. After mixing, the absorbance of each well was determined by an M1000 Tecan Reader, reading at 510 nm. All experiments were conducted in independent biological triplicate. The obtained data were analyzed with Graphpad Prism 5 using the dose–response two-parameter Hill slope equation (eq 1) to obtain the half-maximal effective concentrations EC50 (defined as the concentration of drug that kills 50% of cells, compared to the untreated control). [drawing 1] 1

[2] = test system: PC-3 cells; experiment: as above; type: cell-based, human; details: PC-3 2D monolayer, not washed, SRB at 96 h, n = 3
Procedure: as §1

[3] = test system: U87MG cells; experiment: as above; type: cell-based, human; details: U87MG 2D monolayer, not washed, SRB at 96 h, n = 3
Procedure: as §1

[4] = test system: U87MG spheroids; experiment: 3D tumor spheroid viability assay, CellTiter-Glo 3D; type: cell-based, human; details: U87MG 3D spheroids, CellTiter-Glo 3D at 96 h, n = 3
Procedure: The spheroids were incubated further under normoxia. […] After 30 min of shaking on an IKA Vibrax shaker at 500 rpm at room temperature, the luminescence in each well was measured with a Tecan microplate reader. […] All experiments were conducted in three biologically independent replicates.

[5] = test system: U87MG cells; experiment: Apopxin/Nuclear Green DCS1 double-staining cell death mode study; type: cell-based, human; details: 20 μM, 24 h incubation, 1 h after green light (13.1 J/cm^2), flow cytometry
Procedure: After 24 h of incubation, one plate labeled light was irradiated for 20 min using 520 nm green light (13.1 J/cm^2), and then both plates were allowed to incubate further for 1, 2, 6, or 24 h in a normoxia incubator. After incubation, the cells were trypsinized, collected, and washed with cold PBS twice. […] Cells after staining were detected by flow cytometry (CytoFLEX flow cytometer) immediately. Control groups with only assay buffer, only buffer and Apopxin Deep Red Indicator, only buffer and Nuclear Green DCS1, and all three were included to be used for gating during data analysis. Parameters APC (638 nm excitation, 660/10 nm emission) and FITC (488 nm excitation, 525/40 nm emission) were used considering their similar excitation/emission wavelength with two detectors Apopxin Deep Red Indicator, Ex/Em = 630/660 nm (apoptosis), and Nuclear Green DCS1, Ex/Em = 490/520 nm (necrosis).

[6] = test system: U87MG cells; experiment: Intracellular ROS generation, CellROX Deep Red, flow cytometry; details: 15 µM, 24 h
Procedure: The generation of ROS (reactive oxygen species) in U87MG cells was measured using a ROS deep red fluorescence indicator (Abcam, ab186029). U87MG (1 × 10^5, 1 mL) were seeded into 12-well plates and incubated for 24 h in the dark under normoxia. The cells were then treated with 15 μM complexes with Opti-MEM, Λ-[1]Cl2, Δ-[1]Cl2, cisplatin, or Rose Bengal. There are two groups for each drug (dark + light). After 24 h of incubation under normoxia, the plate was washed with cold PBS once, and cells were trypsinized, harvested, and then resuspended in 150 μL of PBS. The cell suspension from the centrifuge tubes was transferred to 96-round-bottom well plates (Thermo Scientific, 268200), and the light group was irradiated for 20 min with 520 nm light (dose = 13.1 J/cm^2). After which, the Cellular ROS Deep Red dye (abcam, ab186029) was added with 1000× dilution, and cells were further stained for 1 h. Untreated cells were maintained as negative controls, whereas a 250 μM tBHP solution in Opti-MEM complete was administered as a positive control for ROS. The levels of intracellular ROS were then determined using the CytoFLEX flow cytometer. Forward versus side scatter (FSC vs SSC) gating was used to select the population of interest and avoid cell debris. A forward scatter height (FSC-H) vs forward scatter area (FSC-A) gating was used for doublet exclusion. Fluorescence measurements were acquired with the APC-A (638 nm excitation, 660/10 nm emission) channel given the known excitation/emission wavelengths of the ROS Deep Red dye (650/675 nm, respectively). All flow cytometry data were processed using FlowLogic 8.5 software.

[7] = Octanol-water partition coefficient (log P); type: physicochemical; details: shake-flask, octanol-saturated water / water-saturated octanol, shaken 24 h in the dark, room temperature; Ru in water phase by ICP-MS; ± SD from 4 concentration points
Procedure: Each complex was first dissolved in octanol-saturated water (0.5 mM, 500 μL) and centrifuged (2000 rpm, 5 min) to isolate the undissolved solid. 450 μL of the supernatant was taken out as the stock solution; after that, 5, 10, 50, 100, and 150 μL of solution were added to the 15 mL tube, and more octanol-saturated water was added to adjust the final volume to 1 mL. 1 mL of water-saturated octanol was added further, and the tubes were mildly shaken (Gesellschaft für Labortechnik mbH, type3016) for 24 h under dark conditions. After that, the solutions were centrifuged for 5 min at 2000 rpm at room temperature, and 0.5 mL of the water phase (below phase) was moved to a 15 mL centrifuge tube by an Eppendorf pipette. Then, 0.1 mL of 65% HNO3 was added into the tube using an organic pipette gun, and each solution was shaken for 1 h. 9.9 mL of MilliQ water was added into each tube, making a total volume of 10 mL. To detect the Ru content of the stock solution, 10 μL of each stock solution was mixed with 0.490 mL of 65% HNO3, and the mixture was shaken for 1 h. Then, […] of MilliQ water was added to the tube, making a total volume of 10 mL. ICP-MS measurement was performed using a NexION 2000 from PerkinElmer. The ruthenium content in each well was obtained in ppb. The partition coefficients (log P) were calculated using the following eq 3 [drawing 3] 3
where [complex]total is the concentration of the complex in the control sample (where no water-saturated octanol was added) and [complex]water is the concentration of the complex in the aqueous layer.

[8] = test system: ITGAV knockdown U87MG cells (U87MG-kd); experiment: Cellular Ru uptake by ICP-MS, 2 h; type: cell-based, human; details: 10 μM, dark, normoxia, n = 3
Procedure: (§2) The uptake studies in U87MG and U87MG-kd cell lines were conducted as follows: 2 × 10^5 cells were cultured in 6-well plates for 24 h in Opti-MEM (2 mL), after which cells were incubated with Δ-[1]Cl2 or Δ-[3]Cl2 (10 μM) for 2 h, washed with cold PBS twice, harvested, concentrated in 200 μL of PBS, and counted using trypan blue and a cell counter (Bio-Rad). Finally, cell pellets were collected in 1.5 mL Eppendorf tubes after removing additional PBS by centrifuging at 500g; 0.25 mL of 65% HNO3 was then added to each tube, and all tubes were kept at room temperature (RT) overnight. The cell lysates were transferred to 15 mL centrifuge tubes (Biologix) and filled with 4.75 mL of MilliQ H2O.
(§3) The ruthenium concentration was measured in each sample by ICP-MS (NexION 2000, PerkinElmer), providing the metal content in each well in ppb. Combining the cell numbers and Ru uptake, averaging over technical triplicates, the ruthenium uptake values were finally expressed in μg Ru/million cells.

[9] = test system: wild-type U87MG cells (U87MG-wt); experiment: Cellular Ru uptake by ICP-MS, 2 h; type: cell-based, human; details: 10 μM, dark, normoxia, n = 3
Procedure: as §2, §3

[10] = biological target: T1, integrin αIIbβ3 (Homo sapiens, UniProt P05106+P08514); details: literature values; read-out: Kd for the same integrin heterodimers (αIIbβ3); cited from earlier work
T1 construct: Purified human platelet glycoprotein integrin αIIbβ3; purchased Enzyme Research Laboratories GP2b3a; host or cells: human platelets (natural source)
Procedure: Since the ruthenium complexes were designed to target integrins, their interaction with the protein should be a key process for recognition, uptake, and toxicity. To check whether the ruthenium-coordinated peptide still retained the interaction binding affinity with the targeted integrin, the association constant (Ka) of both isomers of [1]Cl2 to integrin αIIbβ3 was measured using luminescence spectroscopy. In this assay, the emission intensity from aromatic residues (tryptophan, tyrosine, and phenylalanine) in integrin αIIbβ3 (λemi = 345 nm) was monitored upon the addition of different concen ...

[11] = 1% O2, dark, 24 h treatment, read-out: EC50,dark
[12] = 1% O2, 520 nm, 7.22 mW/cm^2, 13.1 J/cm^2, 30 min, read-out: EC50,light
[13] = 21% O2, dark, 24 h treatment, read-out: EC50,dark
[14] = 21% O2, 520 nm, 10.9 mW/cm^2, 13.1 J/cm^2, 20 min, read-out: EC50,light

N.N.[Cl][Pt][Cl] [cisplatin, reference compound]
pEC50 ([1]; 1% O2, dark, 24 h treatment, SRB at 96 h, read-out: EC50,dark): 5.19
pEC50 ([1]; 1% O2, 520 nm, 7.22 mW/cm^2, 13.1 J/cm^2, 30 min, SRB at 96 h, read-out: EC50,light): 5.20
pEC50 ([1]; 21% O2, dark, 24 h treatment, SRB at t = 96 h, read-out: EC50,dark): 5.64
pEC50 ([1]; 21% O2, 24 h treatment, 520 nm, 10.9 mW/cm^2, 13.1 J/cm^2, 20 min, SRB at 96 h, read-out: EC50,light): 5.62
pEC50 [2, 11]: 4.64
pEC50 [2, 12]: 4.59
pEC50 [2, 13]: 5.35
pEC50 [2, 14]: 5.39
pEC50 [3, 11]: 4.89
pEC50 [3, 12]: 4.90
pEC50 [3, 13]: 5.55
pEC50 [3, 14]: 5.40
pEC50 [4, 13]: 5.07
pEC50 ([4]; 21% O2, green light after 24 h treatment, read-out: EC50,light): 5.10
cell death mode [5]: mainly died via apoptosis
Ratio of L/D (light/dark ROS ratio) [6]: 0.81

[Ru(Ph2phen)2(κ^S,κ^N-Ac-MRADH-NH2)]Cl2 (sidechain bridge or staple) [Δ-[3]Cl2, Gly-Ala analogue of [1]Cl2]
log P (octanol-water partition coefficient) [7]: 0.02 ± 0.05
uptake amount compared to U87MG-wt cells [8]: taken up in similar amounts
cellular uptake compared to Δ-[1]Cl2 [9]: significantly lower

fibrinogen
pKd [10]: 7.52
